Assay type in all cases: functional
Experiment [1] has as its system Streptococcus pneumoniae. Put plainly: In vitro antibacterial activity against penicillin sensitive Streptococcus pneumoniae UC 9912.
Experiment [2] relates to Enterococcus faecalis. Nature of the experiment: In vitro antibacterial activity against vancomycin resistant Enterococcus faecalis UC 9217 (VREA).
Experiment [3] relates to Staphylococcus aureus. Nature of the experiment: In vitro antibacterial activity against methicillin resistant Staphylococcus aureus UC 12673 (MRSA).
Experiment [4] deals with Haemophilus influenzae. Nature of the experiment: In vitro antibacterial activity against ampicillin resistant Haemophilus influenzae 30063 (B-lactamase +).
For experiment [5], the system named is Moraxella catarrhalis. Nature of the experiment: In vitro antibacterial activity against Moraxella catarrhalis 30607.
Experiment [6] deals with Staphylococcus aureus. Nature of the experiment: In vitro antibacterial activity against methicillin susceptible Staphylococcus aureus UC 9213 (MSSA).
Experiment [7] relates to Staphylococcus epidermidis. Nature of the experiment: In vitro antibacterial activity against methicillin resistant Staphylococcus epidermidis UC 12084.
In experiment [8] the test system is Mus musculus. Put plainly: In vivo efficacy to protect the Staphylococcus aureus infected mouse and the activity was reported using Linezolid as a control with ED50 = 5.
Experiment [9] deals with Mus musculus. Put plainly: In vivo efficacy to protect the Staphylococcus aureus infected mouse and the activity was reported using Linezolid as a control with ED50 = 5.6.
The test system of experiment [10] is Mus musculus. Nature of the experiment: In vivo efficacy to protect the Staphylococcus aureus infected mouse and the activity was reported using Linezolid as a control with ED50 = 2.2.
In experiment [11] the test system is Mus musculus. Put plainly: In vivo efficacy to protect the Staphylococcus aureus infected mouse and the activity was reported using Linezolid as a control with ED50 = 3.8.
Experiment [12] relates to Mus musculus. Nature of the experiment: In vivo efficacy to protect the Staphylococcus aureus infected mouse and the activity was reported using Linezolid as a control with ED50 = 3.1.
The subject of experiment [13] is Mus musculus. Nature of the experiment: In vivo efficacy to protect the Staphylococcus aureus infected mouse and the activity was reported using Linezolid as a control with ED50 =4.
The subject of experiment [14] is Mus musculus. Nature of the experiment: In vivo efficacy to protect the Staphylococcus aureus infected mouse and the activity was reported using Linezolid as a control with ED50 = 4.3.

What is called ED50 is the dose that gives a 50% effect, or the effect in half of the subjects.

Molecules are shown by their SMILES. ≈ marks a conversion by molar mass, not a printed value.

`CC(=O)NC[C@H]1CN(c2ccc(-c3nnc(CS(C)(=O)=O)s3)c(F)c2)C(=O)O1`: the MIC in experiment [1] was below 0.5 µg/mL; in experiment [2] it was 2 µg/mL (≈ 4.67 µM); in experiment [3], 4 µg/mL (≈ 9.34 µM); in experiment [4], 4 µg/mL (≈ 9.34 µM); in experiment [5], 4 µg/mL (≈ 9.34 µM); in experiment [6], 4 µg/mL (≈ 9.34 µM). In experiment [7], this compound showed an MIC of 1 µg/mL (≈ 2.33 µM).
With `C/C(S)=N/C[C@H]1CN(c2ccc(-c3nnc(CS(C)(=O)=O)s3)c(F)c2)C(=O)O1`, the MIC was 0.06 µg/mL (≈ 0.135 µM) in [1]; 0.25 µg/mL (≈ 0.562 µM) in experiment [2]; 0.5 µg/mL (≈ 1.12 µM) in experiment [3]; 2 µg/mL (≈ 4.5 µM) in experiment [4]; 0.5 µg/mL (≈ 1.12 µM) in [5]; 0.25 µg/mL (≈ 0.562 µM) in experiment [6]. The same compound had an MIC in experiment [7] of 0.25 µg/mL (≈ 0.562 µM). The compound further yielded an ED50 in experiment [8] above 20 mg/kg.
On to `C/C(S)=N/C[C@H]1CN(c2ccc(-c3nncs3)c(F)c2)C(=O)O1`, for which the MIC in [1] is below 0.125 µg/mL; in [2], 0.125 µg/mL (≈ 0.355 µM); in experiment [3], below 0.125 µg/mL; in experiment [4], 1 µg/mL (≈ 2.84 µM); in [5], 0.25 µg/mL (≈ 0.709 µM); in experiment [6], 0.25 µg/mL (≈ 0.709 µM). Moreover, in [7], the MIC is below 0.125 µg/mL. This compound returned an ED50 in experiment [9] above 20 mg/kg.
Consider `COCc1nnc(-c2ccc(N3C[C@H](CNC(C)=O)OC3=O)cc2F)s1`, for which the MIC in experiment [1] came out at 0.25 µg/mL (≈ 0.657 µM); in experiment [2], 1 µg/mL (≈ 2.63 µM); in experiment [3], 1 µg/mL (≈ 2.63 µM); in experiment [4], 8 µg/mL (≈ 21 µM); in experiment [5], 4 µg/mL (≈ 10.5 µM); in experiment [6], 2 µg/mL (≈ 5.26 µM). This compound registered an MIC in experiment [7] of 4 µg/mL (≈ 10.5 µM). The ED50 in experiment [10] worked out at 5.8 mg/kg.
On to `CCOC(=O)c1nnc(-c2ccc(N3C[C@H](CNC(C)=O)OC3=O)cc2F)s1`, for which the MIC in experiment [1] was below 0.125 µg/mL; in experiment [2], 8 µg/mL (≈ 19.6 µM); in experiment [3], 8 µg/mL (≈ 19.6 µM); in [4] it was above 16 µg/mL; in experiment [5], 16 µg/mL (≈ 39.2 µM); in experiment [6], 8 µg/mL (≈ 19.6 µM). Also, in experiment [7], the MIC turned out to be 2 µg/mL (≈ 4.9 µM).
With `CC(=O)NC[C@H]1CN(c2ccc(-c3nnc(O)s3)c(F)c2)C(=O)O1`, the MIC in experiment [1] was 0.125 µg/mL (≈ 0.355 µM); in [2] it was 1 µg/mL (≈ 2.84 µM); in [3] it was 1 µg/mL (≈ 2.84 µM); in experiment [4], 4 µg/mL (≈ 11.4 µM); in [5], 4 µg/mL (≈ 11.4 µM); in [6] it was 1 µg/mL (≈ 2.84 µM). The MIC in experiment [7] worked out at 0.5 µg/mL (≈ 1.42 µM). Further, in experiment [11], the ED50 is 13 mg/kg.
For the compound `CC(=O)NC[C@H]1CN(c2ccc(-c3nnc(CC/C(C)=N/O)s3)c(F)c2)C(=O)O1`, the MIC was below 0.125 µg/mL in experiment [1]; 1 µg/mL (≈ 2.37 µM) in experiment [2]; 2 µg/mL (≈ 4.75 µM) in experiment [3]; 4 µg/mL (≈ 9.49 µM) in experiment [4]; 4 µg/mL (≈ 9.49 µM) in [5]; 2 µg/mL (≈ 4.75 µM) in experiment [6]. Besides, the MIC in experiment [7] was 0.5 µg/mL (≈ 1.19 µM). Moreover, the ED50 in experiment [8] is above 20 mg/kg.
As to `CC(=O)NC[C@H]1CN(c2ccc(-c3nnc(CO)s3)c(F)c2)C(=O)O1`, the MIC is below 0.125 µg/mL in experiment [1]; 1 µg/mL (≈ 2.73 µM) in [2]; 1 µg/mL (≈ 2.73 µM) in [3]; 4 µg/mL (≈ 10.9 µM) in experiment [4]; 2 µg/mL (≈ 5.46 µM) in experiment [5]; 1 µg/mL (≈ 2.73 µM) in experiment [6]. In addition, in [7], the MIC worked out at 0.25 µg/mL (≈ 0.682 µM). For the same compound, in [12], the 50% effective dose (ED50) is 8.7 mg/kg.
For the compound `CC(=O)NC[C@H]1CN(c2ccc(-c3nnc(CF)s3)c(F)c2)C(=O)O1`, the MIC in [1] amounted to 0.25 µg/mL (≈ 0.679 µM); in experiment [2], 1 µg/mL (≈ 2.71 µM); in experiment [3], 1 µg/mL (≈ 2.71 µM); in experiment [4], 4 µg/mL (≈ 10.9 µM); in experiment [5], 2 µg/mL (≈ 5.43 µM); in experiment [6] it was 1 µg/mL (≈ 2.71 µM). The same compound yielded an MIC in experiment [7] of 0.25 µg/mL (≈ 0.679 µM). In addition, in [13], the 50% effect level (ED50) was put at a dose of 8.6 mg/kg.
For the compound `CSCc1nnc(-c2ccc(N3C[C@H](CNC(C)=O)OC3=O)cc2F)s1`, the MIC in [1] is 0.25 µg/mL (≈ 0.631 µM); in experiment [2], 1 µg/mL (≈ 2.52 µM); in experiment [3], 1 µg/mL (≈ 2.52 µM); in [4], above 16 µg/mL; in experiment [5], 4 µg/mL (≈ 10.1 µM); in [6] it was 1 µg/mL (≈ 2.52 µM). Further, the MIC in experiment [7] was 0.25 µg/mL (≈ 0.631 µM).
For the compound `CNCc1nnc(-c2ccc(N3C[C@H](C/N=C(/C)S)OC3=O)cc2F)s1`, the MIC in [1], in experiment [2], in [4], in experiment [5], in experiment [6] and in [7] was below 0.5 µg/mL in each case. In experiment [14], this compound displayed a median effective dose (ED50) above 20 mg/kg.

These data come from ChEMBL document CHEMBL1136455, “The synthesis and antibacterial activity of 1,3,4-thiadiazole phenyl oxazolidinone analogues” (Bioorg Med Chem Lett, 2003).
